From patent US20160250285A1, “NEUROPROTECTIVE PEPTIDES” (priority 2013, published 2016)
Entries after “also recorded” stand apart in the source; their conditions may differ.

Assays:
[1] = test system: primary cortical neuronal cultures; test: In vitro ischemia / oxygen-glucose deprivation (OGD) model, neurons; type: cell-based, rat; conditions: for neuroprotection when added for 15 minutes after OGD: FIGS. 31, 20, 22, 1 μM and 5 μM in FIG. 31; for neuroprotection when added post-in vitro ischemia/OGD: added after anaerobic incubation until experiment end (FIGS. 3b, 16, 17)
Experimental: Establishment of cortical cultures was as previously described (Meloni et al. 2001). Briefly, cortical tissue from E18-E19 Sprague-Dawley rats was dissociated in Dulbecco's modified Eagle medium (DMEM; Invitrogen, Australia) supplemented with 1.3 mM L-cysteine, 0.9 mM NaHCOa, 10 units/ml papain (Sigma, USA) and 50 units/ml DNase (Sigma) and washed in cold DMEM/10% horse serum. Neurons were resuspended in Neurobasal (Invitrogen) containing 2% B27 supplement (B27; Invitrogen). Before seeding, 96-well sized glass wells (6 mm diameter, ProTech, Australia) or 96-well plastic plates (ProSciTech, Australia) were coated with poly-D-lysine overnight (50 ml/well: 50 mg/mL; 70-150 K, Sigma). Excess poly-D-lysine solution was then removed and replaced with Neurobasal (containing 2% B27; 4% fetal bovine serum; 1% horse serum; 62.5 mM glutamate; 25 mM 2-mercaptoethanol; and 30 mg/mL streptomycin and 30 mg/mL penicillin). Neurons were plated to obtain ≈10,000 viable neurons for each well on day in vitro 11-12. Neuronal cultures were maintained in a CO2 incubator (5% CO2, 95% air balance, 98% humidity) at 37° C. On day in vitro 4 one third of the culture medium was removed and replaced with fresh Neurobasal/2% B27 containing the mitotic inhibitor, cytosine arabinofuraNOside (1 mM final concentration; Sigma). On day in vitro 8 one half of the culture medium was replaced with Neurobasal/2% B27. Cultures were used on day in vitro 11 or 12 after which time they routinely consist of >97% neurons and 1-3% astrocytes (Meloni et al. 2001).
The in vitro ischemia model used for primary cortical neuronal cultures was performed as previously described (Meloni et at 2011) Briefly, culture media was removed from wells (glass 96-well plate format) and washed with 315 μl of glucose free balanced salt solution (BSS; mM: 116 NaCl, 5.4 KCl, 1.8 CaCl2, 0.8 MgSO4, 1 NaH2PO4; pH 6.9) before the addition of 60 μl BSS containing cell penetrating or control peptides (see Table 1). A non-peptide positive control consisting of the glutamate receptor blockers (5 μM MK801/5 μM 6-cyano-7-nitroquinoxaline: MK801/CNQX) was also included. In vitro ischemia was initiated by placing wells in an anaerobic incubator (Don Whitely Scientific, England; atmosphere of 5% CO2, 10% H2 and 85% argon, 98% humidity) at 37° C. for 55 minutes. Upon removal from the anaerobic incubator, 60 μl of Neurobasal/2% N2 supplement was added to the wells and cultures incubated for a further 24 hours at 37° C. in the CO2 incubator. Control cultures received the same BSS wash procedures and media additions as ischemic treated cultures before incubation at 37° C. in the CO2 incubator.
Control cultures underwent the same BSS wash procedures and media additions as OGD treated cultures.
Twenty-four hours after insult, neuronal cultures were examined by light microscopy for qualitative assessment of neuronal cell viability. Neuronal viability was quantitatively measured by 3-(4,5,dimethyliazol-2-yl)-5-(3-carboxymethoxy-phenyl)-2-(4-sulfophenyl)-2H-tetrazolium salt (MTS) assay (Promega, Australia). The MTS assay measures the cellular conversion of the tetrazolium salt to a water-soluble brown formazan salt, which is detected spectrophotometrically at 490 nm. MTS absorbance data were converted to reflect proportional cell viability relative to both the untreated and treated controls, with the untreated control taken as 100% viability, and presented as mean±SEM. […] Viability data was analysed by ANOVA, followed by post-hoc Fischer's PLSD test, with P<0.05 values considered statistically significant. Four- to six wells were used in all assays.

[2] = test system: permanent middle cerebral artery occlusion (MCAO) stroke model; test: Rat permanent middle cerebral artery occlusion (MCAO) stroke model; type: in vivo; conditions: for neuroprotective activity in vivo: 1 μmol/kg intravenously 30 min post-MCAO
Experimental: Administration of peptide (DR9: rrrrrrrrr-NH2; R12, R15, R18, protamine sulphate; protamine) or vehicle (saline: 0.9% NaCl) treatment solution was performed at 30 min post-MCAO. The peptide treatment comprised DR9 in saline (600 μl) to provide an intravenous loading dose of 1 μmol/kg or 1000 nmol/kg given over 5-6 min via the right jugular vein.
This study was approved by the Animal Ethics Committee of the University of Western Australia. Male Sprague Dawley rats weighing 270 g to 350 g were kept under controlled housing conditions with 12 hour light-dark cycle with free access to food and water. Experimental animals were fasted overnight and subjected to permanent middle cerebral artery occlusion (MCAO) as follows.
Anaesthesia was induced with 4% isoflurane and a 2:1 mix of N2O and O2 via mask. Anaesthesia was maintained at 1.7-2% isoflurane. Cerebral blood flow (CBF) was monitored continuously using laser Doppler flowmetry (Blood FlowMeter, AD Instruments, Sydney, Australia). The probe was located 1 mm caudal and 4 mm lateral (right) to the bregma. A cannula was inserted in the right femoral artery to continuously monitor blood pressure and to provide samples for blood glucose and blood gas readings. Blood glucose was measured using a glucometer (MediSense Products, Abbott Laboratories, Bedford, Mass., USA) and blood gases were measured using a blood gas analyser (ABL5, Radiometer, Copenhagen, Denmark). Blood pressure was maintained at 80-100 mmHg. During surgery, rectal temperature was maintained at 37±0.5° C. and warming applied with a fan heater when necessary. For intravenous infusions, a length of PVC line primed with heparinised saline was tied in place in the right jugular vein, then externalised through a dorsal mid-scapular incision to a tether/swivel system (Instech Laboratories, Philadelphia, USA) designed to permit free movement.
The right common carotid artery (CCA) was exposed via a ventral neck incision. […] The isolated section of the ECA was ligated and cauterised to create a stump. The carotid body was removed and the pterygopalatine artery was ligated. A 4-0 nylon monofilament with a 0.39 mm diameter silicone tip (Doccol, Redlands, Calif., USA) was inserted through the ECA stump into the CCA and advanced rostrally into the internal carotid artery (ICA) until the laser Doppler flowmetry recorded a >30% decrease from baseline of cerebral blood flow. The monofilament was secured in two places (at the base of the ECA stump and on the ICA) for the remainder of the experiment. Animals were given post-operative analgesia consisting of pethidine (3 mg/kg intramuscular) and bupivacaine (1.5 mg/kg subcutaneously) at head and leg incision sites.
Post-surgery animals were allowed to recover in a climate-controlled chamber and their core body temperature monitored and maintained at 37±0.5° C. by a cooling/heating fan when required for 3-4 hours.
Animals were sacrificed 24 hours post-MCAO with intra-peritoneal injections of sodium pentobarbitone (900 mg/kg). […] Slices were scanned and images were analysed by an operator blind to treatment status using ImageJ 3rd edition (NIH, USA). The total infarct volume was determined by adding the areas of infarcted tissue on both sides of the 2 mm sections. These measured areas were multiplied by half slice thickness (1 mm), and corrected for cerebral oedema by multiplying the ratio of affected to normal hemisphere areas. […]

| Molecule | neuroprotection when added for 15 minutes after OGD [1] | IC50 ([1]; Table 3, from FIG. 3a, peptide during ischemia and at 50% dose after, viability 24 h, MTS, read-out: IC50: In vitro ischemia model) | neuroprotection when added post-in vitro ischemia/OGD [1] | neuroprotective activity in vivo [2] | efficacy at higher concentrations, added post-in vitro ischemia ([1]; FIG. 3b) | neuroprotection, peptide for 10 minutes, 1 to 3 hours prior to OGD ([1]; FIG. 32) | reduction of infarct volume (brain damage) ([2]; 1 μmol/kg IV 30 min post-MCAO, infarct volume 24 h post-MCAO (FIGS. 5, 27)) |
| --- | --- | --- | --- | --- | --- | --- | --- |
| N=C(N)NCCC[C@H](NC(=O)[C@H](CCCNC(=N)N)NC(=O)[C@H](CCCNC(=N)N)NC(=O)[C@H](CCCNC(=N)N)NC(=O)[C@H](CCCNC(=N)N)NC(=O)[C@H](CCCNC(=N)N)NC(=O)[C@H](CCCNC(=N)N)NC(=O)[C@H](CCCNC(=N)N)NC(=O)[C@@H](N)CCCNC(=N)N)C(=O)O [Peptide R9] | not | 6 µM | displayed neuroprotective effects; also recorded: effective | possessed neuroprotective activity in vivo |  |  |  |
| H-RRRRRRRRRRRRRRRRRR-OH [Peptide R18] | Neuroprotection is displayed |  | displayed neuroprotective effects; also recorded: effective | possessed neuroprotective activity in vivo | reduced efficacy | effective | approximately 20% |
